Results reported in a compilation of properties of binary mixtures (doi:10.1007/s10953-016-0465-y).

Experiment: xn = mol fraction of the nth substance listed
Conditions: 101 kPa

CCOS(=O)(=O)[O-].CC[n+]1ccn(C)c1 + COCCO
speed of sound [m/s]
Conditions | 298.15 K | 308.15 K | 318.15 K | 328.15 K
x1 = 0.049 | 1381 | – | 1316.1 | 1282.9
x1 = 0.0819 | 1403 | – | 1340.4 | 1308
x1 = 0.1453 | 1441 | 1412 | 1381.9 | –
x1 = 0.1765 | 1457.4 | 1429 | 1399.5 | 1369.2
x1 = 0.2557 | 1494.5 | – | 1438.7 | 1410
x1 = 0.3386 | – | 1500.6 | 1472.9 | –
x1 = 0.4472 | – | 1537.2 | 1510.3 | 1484.3
x1 = 0.5453 | 1592.2 | 1565.7 | 1539.3 | 1514.2
x1 = 0.6466 | 1617.7 | – | 1565.9 | 1541.3
x1 = 0.7562 | 1641.6 | – | 1591.4 | 1567
x1 = 0.8206 | 1654 | 1629.2 | 1604.6 | 1580.4
x1 = 0.8868 | – | 1641 | – | –
x1 = 0.951 | 1674.9 | 1650.6 | 1626.6 | 1602.8
x1 = 1 | 1680.8 | 1656.4 | – | 1608.9

COCCO + CCOS(=O)(=O)[O-].CC[n+]1ccn(C)c1
x2 = 0
Conditions | speed of sound [m/s]
298.15 K | 1344
308.15 K | 1309.2
318.15 K | 1274.5
328.15 K | 1240.1
